Experimental data from patent US11964935B2, “Gingerol derivative having inhibitory activity against biofilm formation and pharmaceutical composition comprising same as effective ingredient for preventing or treating biofilm-caused infection symptom” (Korea University Research and Business Foundation, Sejong …, priority 2017, dated 2024).
Entries after “also recorded” stand apart in the source; their conditions may differ.

Experiments:
LasR = biological target: T1, LasR (Pseudomonas aeruginosa, UniProt P25084); test: LasR reporter gene assay (E. coli reporter strain, luminescence, competition with OdDHL); type: cell-based; details: compound 1 μM or 10 μM in the presence of 1 μM OdDHL (compound 1a)
T1 construct: expressed in transfected cells; host or cells: E. coli DH5α (printed DHSα) co-transformed with pJN105L and pSC11
Protocol: This assay was conducted by modifying a previously reported method. E. coli DHSα co-transformed with two plasmids, pJN105L (LasR expression plasmid) and pSC11 (lasI::lacZ fusion plasmid), was used as a bioassay reporter strain. Overnight culture of the reporter strain with 10 μg/mL gentamicin and 50 μg/mL ampicillin was diluted in the Luria-Bertani (LB) medium (1:100). Then, the reporter strain (optical density at 595 nm [OD595] was 0.3) mixed with either a positive control or the synthesized compound was incubated with OdDHL (Sigma-Aldrich, St. Louis, MO., USA) and 0.4% arabinose (Sigma-Aldrich). After incubation at 37° C. for 1.5 h, OD595 was measured on a VICTOR ×5 multimode plate reader (PerkinElmer, Waltham, Mass., USA). The β-galactosidase activity was determined using a Tropix plus kit (Applied Biosystems, USA), and luminescence was measured on the VICTOR ×5 multimode plate reader. RLU ratio was quantified by dividing luminescence with OD595.
LasR-binding affinity of the synthesized gingerols (compounds 4-10) with various alkyl chain lengths was determined by measuring luminescence of an E. coli reporter strain. The reporter strain carried two plasmids, pJN105L (LasR expression plasmid) (Lee, J. H.; Lequette, Y.; Greenberg, E. P. Activity of purified QscR, a Pseudomonas aeruginosa orphan quorum-sensing transcription factor. Mol. Microbiol. 2006, 59, 602609.) and pSC11 (las1::lacZ fusion plasmid) (Chugani, S. A.; Whiteley, M.; Lee, K. M.; D'Argenio, D.; Manoil, C.; Greenberg, E. P. QscR, a modulator of quorum-sensing signal synthesis and virulence in Pseudomonas aeruginosa. Proc. Natl. Acad. Sci. U.S.A. 2001, 98, 27522757.), which enabled assay of competitive binding of OdDHL with each gingerol derivative 4-10. Antagonistic activities of the synthesized compounds at 1 μM or 10 μM were determined by measuring luminescence in the presence of 1 μM OdDHL (compound 1a) and presented as relative luminescence unit (RLU) ratio. Three compounds (compounds 1b, 1c, and 1d) served as positive controls. […] Just as the LasR inhibition, inhibition of biofilm formation also strengthened as the carbon chain was extended at 10 μM ((B) of FIG. 3). However, inhibition of biofilm formation decreased with 9-gingerol (compound 9) and 10-gingerol (compound 10) at 100 μM ((C) of FIG. 3) because of increased bacterial growth inhibition. […] This effect may be due to the fact that compounds 9 and 10 act as a surfactant, which inhibits bacterial growth. Agonistic activities of compounds 4-10 in an E. coli reporter assay system in the absence of OdDHL were next examined.

P. aeruginosa PA14 [1] = test: Dynamic biofilm formation assay (drip-flow reactor, CLSM); type: cell-based, Pseudomonas aeruginosa; details: 48 h drip-flow reactor
Protocol: Glass slides were dipped into a Petri dish containing 2 mL of a P. aeruginosa PA14 suspension (OD595=1.0) and 18 mL of the AB medium, followed by incubation at 37° C. for 24 h to let the cells adhere to the slides. The slides were then inserted into a drip-flow reactor (DFR-110, BioSurface, Mont., USA). The AB medium with either a positive control or the synthesized compound (0-10 μM) was fed into the reactor continuously via a peristaltic pump (Masterflex C/L tubing pumps, Cole-Parmer, IL, USA) at 0.3 mL/min After operation of the reactor at 37° C. for 48 h, the cells on the slides were washed two times with PBS. The biofilm cells were stained with fluorescein isothiocyanate-labeled type IV ConA (Sigma-Aldrich) and SYPRO Ruby (Ruby, Invitrogen, Carlsbad, CA, USA) for 15 min, respectively. CLSM images were captured via a 20× objective lens (W N-Achroplan 20×/0.5 W [DIC] M27) with green fluorescence (ConA, excitation wavelength of 490 nm, emission wavelength of 525 nm) and red fluorescence (Ruby, excitation wavelength of 470 nm, emission wavelength of 618 nm) and were analyzed in the Zen 2011 software (Carl Zeiss, Jena, Germany). For quantification, biofilm volume (μm^3/μm^2) and average thickness (μm) were measured by means of Comstat2 in ImageJ.
A dynamic biofilm formation assay of compounds 41 and 42 was performed in a drip-flow reactor. Compound 1c served as a positive control, and DMSO served as a negative control. After 48 h drip-flow reactor operation, the biofilm was stained with Ruby and concanavalin A (ConA). Ruby (red) is a reagent for staining protein, and ConA (green) is for carbohydrate of biofilm. As shown in (A) of FIG. 8, the biofilm in the presence of DMSO formed with typical mushroom-like morphology. […] Biofilm volume and thickness with compound 41 were the lowest among the three groups (Table 1).

P. aeruginosa PA14 [2] = test: Static biofilm formation assay; type: cell-based, Pseudomonas aeruginosa; details: 10 μM, 24 h, static
Protocol: Overnight culture of P. aeruginosa PA14 (OD595=1.0) was diluted (1:20) with the AB medium (300 mM NaCl, 50 mM MgSO4, 0.2% vitamin-free casamino acids, 10 mM potassium phosphate, 1 mM L-arginine, and 1% glucose, pH 7.5) (1:20) containing with either positive controls or synthesized compounds (0-100 μM). The dilutions were aliquoted into borosilicate bottles, and the bottles were incubated at 37° C. for 24 h without agitation. After that, OD595 of the cell suspension was measured on the VICTOR ×5 multimode plate reader. The biofilm cells attached to the bottle were washed two times with phosphate buffered saline (PBS; 137 mM NaCl, 2.7 mM KCl, 10 mM Na2HPO4, and 2 mM KH2PO4, pH 7.2) and stained with 0.1% crystal violet for […] Next, the stained biofilm cells were eluted with 100% ethyl alcohol, and OD540 was measured on the VICTOR ×5 multimode plate reader. The biofilm formation was quantified by dividing OD540 with OD595.

T1 sequence (P25084 whole entry): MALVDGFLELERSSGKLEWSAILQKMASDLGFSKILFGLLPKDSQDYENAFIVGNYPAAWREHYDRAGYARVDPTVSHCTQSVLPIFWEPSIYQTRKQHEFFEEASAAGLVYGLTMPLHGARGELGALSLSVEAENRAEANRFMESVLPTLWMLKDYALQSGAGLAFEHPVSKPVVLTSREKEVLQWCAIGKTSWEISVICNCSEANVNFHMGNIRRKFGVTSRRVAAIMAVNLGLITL

SMILES | LasR-antagonistic activity / LasR-binding affinity (RLU ratio), in words (LasR) | Inhibition of biofilm formation, in words (P. aeruginosa PA14 [2]) | also measured
CCCCCC(O)CC(=O)CCc1ccc(O)c(OC)c1 (racemic) [Compound 6, 5-Hydroxy-1-(4-hydroxy-3-methoxyphenyl)decan-3-one] | slightly more potent | – | –
CCCCCCCC(O)CC(=O)CCc1ccc(O)c(OC)c1 (racemic) [Compound 8, 5-Hydroxy-1-(4-hydroxy-3-methoxyphenyl)dodecan-3-one] | slightly more potent | – | –
CCCCCCCC(O)CC(=O)/C=C/c1ccc(O)c(OC)c1 (racemic) [Compound 21b, (E)-5-Hydroxy-1-(4-hydroxy-3-methoxyphenyl)dodec-1-en-3-one] | slightly stronger LasR affinity; also recorded: more potent than compound 1c | – | –
CCCCCCCC(O)CC(=O)CCc1ccc(O)c(OC)c1 [Compound 1c, (S)-8-gingerol, reference compound] | – | – | Biofilm thickness (P. aeruginosa PA14 [1]; 10 μM compound, CLSM, Comstat2): 17.0 ± 0.4 μm; Biofilm volume (P. aeruginosa PA14 [1]; 10 μM compound, CLSM, Comstat2): 17.0 ± 0.4 μm^3/μm^2; Biofilm formation in CLSM images, in words (P. aeruginosa PA14 [1]; 10 μM, compared with DMSO or compound 1c): relatively thin and sparse
CCCCCC(O)CC(=O)CCc1ccccc1 (centres unmarked) [Compound 15a, 5-Hydroxy-1-phenyldecan-3-one] | significantly decreased the LasR-antagonistic activity | – | –
CCCCCCCC(O)CC(=O)CCc1ccccc1 (centres unmarked) [Compound 15b, 5-Hydroxy-1-phenyldodecan-3-one] | relatively weaker than those of the other compounds | – | –
CCCCCC(O)CC(=O)CCc1ccc(F)c(OC)c1 (centres unmarked) [Compound 16a, 1-(4-Fluoro-3-methoxyphenyl)-5-hydroxydecan-3-one] | preserved the LasR-inhibitory activity | the most potent in the series | –
CCCCCCCC(O)CC(=O)CCc1ccc(F)c(OC)c1 (centres unmarked) [Compound 16b, 1-(4-Fluoro-3-methoxyphenyl)-5-hydroxydodecan-3-one] | – | the most potent in the series; also recorded: stronger inhibition of biofilm formation than the known anti-biofilm agent (S)-6-gingerol | –
CCCCCC(O)CC(=O)CCc1ccc(F)cc1 (centres unmarked) [Compound 17a, 1-(4-Fluorophenyl)-5-hydroxydecan-3-one] | preserved the LasR-inhibitory activity | the most potent in the series | –
CCCCCCCC(O)CC(=O)CCc1ccc(F)cc1 (centres unmarked) [Compound 17b, 1-(4-Fluorophenyl)-5-hydroxydodecan-3-one] | the most potent among the synthesized compounds | the most potent in the series; also recorded: stronger inhibition of biofilm formation than the known anti-biofilm agent (S)-6-gingerol | –
CCCCCC(O)CC(=O)CCc1ccc(O)cc1 (centres unmarked) [Compound 18a, 5-Hydroxy-1-(4-hydroxyphenyl)decan-3-one] | increased the LasR-antagonistic activity | the most potent in the series | –
CCCCCCCC(O)CC(=O)CCc1ccc(O)cc1 (centres unmarked) [Compound 18b, 5-Hydroxy-1-(4-hydroxyphenyl)dodecan-3-one] | the most potent among the synthesized compounds | the most potent in the series; also recorded: stronger inhibition of biofilm formation than the known anti-biofilm agent (S)-6-gingerol | –
CCCCCC(O)CC(=O)CCc1cccc(OC)c1 (centres unmarked) [Compound 20a, 5-Hydroxy-1-(3-methoxyphenyl)decan-3-one] | decreased the LasR-antagonistic activity | – | –
CCCCCCCC(O)CC(=O)CCc1cccc(OC)c1 (centres unmarked) [Compound 20b, 5-Hydroxy-1-(3-methoxyphenyl)dodecan-3-one] | relatively weaker than those of the other compounds | – | –
CCCCCC(O)CC(=O)/C=C/c1ccc(O)c(OC)c1 (centres unmarked) [Compound 21a, (E)-5-Hydroxy-1-(4-hydroxy-3-methoxyphenyl)dec-1-en-3-one] | slightly stronger LasR affinity | – | –
CCCCCCCC(=O)/C=C/c1ccc(O)c(OC)c1 [Compound 23a, (E)-1-(4-Hydroxy-3-methoxyphenyl)dec-1-en-3-one] | significantly weaker LasR-binding affinity | less inhibition of biofilm formation | –
CCCCCCCCCC(=O)/C=C/c1ccc(O)c(OC)c1 [Compound 23b, (E)-1-(4-Hydroxy-3-methoxyphenyl)dodec-1-en-3-one] | significantly weaker LasR-binding affinity | less inhibition of biofilm formation | –
CCCCCCCC(=O)CCc1ccc(O)c(OC)c1 [Compound 24a, 1-(4-Hydroxy-3-methoxyphenyl)decan-3-one] | significantly weaker LasR-binding affinity | less inhibition of biofilm formation | –
CCCCCCCCCC(=O)CCc1ccc(O)c(OC)c1 [Compound 24b, 1-(4-Hydroxy-3-methoxyphenyl)dodecan-3-one] | significantly weaker LasR-binding affinity | less inhibition of biofilm formation | –
CCCCCCC[C@@H](O)CC(=O)CCc1ccc(O)c(OC)c1 [Compound 29, (R)-5-Hydroxy-1-(4-hydroxy-3-methoxyphenyl)dodecan-3-one] | intermediate LasR-affinity between compound 8 and compound 42 | – | –
CCCCCCCC(O)CC(=O)CCc1ccc(O)c(OC)c1 [Compound 42S, (S)-8-gingerol] | almost the same as that of commercial (S)-8-gingerol | – | –
